These results are taken from US10328092B2, “Methods and compositions for treatment of drug addiction” (The Royal Institution for the Advancement of Learning / …, priority 2015, dated 2019).

The subject of this assay is D1-MSNs in the NAc core. The assay is described as follows: AMPA/NMDA ratio on D1-MSNs after in vivo treatment. The arrangement: species or system mouse. The procedure: Repeated non-contingent administration of cocaine results in lower AMPA/NMDA ratios of excitatory inputs onto the NAc specifically on the D1-MSN subtype (Kim et al., 2011; Pascoli et al., 2012). To test whether the decrease in AMPA/NMDA ratios after repeated drug administration is due to the increase in TNFα expression, the AMPA/NMDA ratio was evaluated on D1 and D2 MSNs in the NAc core following cocaine or saline administration in WT and TNFα^−/− mice. […] This is consistent with the exocytosis of AMPARs observed with direct stimulation of D1Rs on MSNs (Mangiavacchi and Wolf, 2004). […] To test the hypothesis that potentiated D1-MSNs are more sensitive to TNFα, TNFα mice were treated with a single injection of cocaine and the effect of a low level of TNFα (10 ng/ml) on AMPA/NMDA ratios was evaluated. […] This treatment had no effect on D2-MSNs (FIG. 9B). To test whether cocaine-induced TNFα signaling would occlude further TNFα synaptic depression, wildtype animals were treated with cocaine for 5 days, and then treated striatel slices ex-vivo with TNFα (100 ng/ml). The AMPA/NMDA ratio on D1-MSNs (already reduced compared to saline treated animals; FIG. 5E) was not further reduced by treatment with TNFα (FIG. 5G).
Because depotentiation of MSNs reduced cocaine-induced behavioural sensitization (Pascoli et al., 2012), it was tested whether re-activation of microglia would depress NAc synapses and suppress sensitization. To do this, monophosphoryl lipid A (MPLA), a detoxified variant of LPS, was used (Casella and Mitchell, 2008). MPLA acts as a weak TLR4 agonist that is at least 100-fold less pyrogenic than LPS (Cluff, 2010) and is used in humans as an adjuvant for several vaccine formulations. […] It was verified that MPLA activates microglia in the striatum, by injecting 10 μg MPLA IP after 10 days withdrawal from cocaine. […] This is consistent with previous observations that MPLA acts as a microglia modulator (Michaud et al., 2013). […] It was next tested if MPLA treatment would depress synaptic strength in the NAc core. After 10 days of withdrawal, animals were injected with MPLA and evaluated 24 hours later for AMPA/NMDA ratios on D1-MSNs.
240 μm thick coronal slices containing the nucleus accumbens were prepared from brains of 8-9 week-old mice (with fluorescent D1-MSNs). After a 1 h recovery period, slices were placed in a submersion-type recording chamber and perfused (1.5-2 ml/min) at 30° C. with a bicarbonate-buffered artificial CSF saturated with 95% O2/5% CO2 and containing (in mM): 119 NaCl, 2.5 KCl, 1 NaH2PO4, 1.3 MgCl2, 2.5 CaCl2, 26.2 NaHCO3, 11 glucose, and 0.05 picrotoxin. Whole-cell voltage-clamp recordings from medium spiny neurons in the nucleus accumbens core were obtained under visual control using infrared-differential interference contrast microscopy. Whole-cell electrodes (2-4 MΩ) were filled with internal solution containing the following (in mM): 120 CsMeSO3, 15 CsCl, 8 NaCl, 0.2 EGTA, 10 HEPES, 2 Mg-ATP, 0.3 Na-GTP, 10 tetraethylammonium, and 5 QX-314 [5-N-(2,6-dimethylphenylcarbamoylmethyl)triethylammonium bromide] (308-310 mOsm). pH was adjusted to 7.3 with CsOH. Cells with series resistance above 25 MΩ or a 20% change over time were excluded. Synaptic currents were evoked using stainless-steel bipolar stimulating electrodes placed 100-150 μm rostral to the recorded neurons. EPSCs were acquired with an Axopatch 200B (Molecular Devices), filtered at 2 kHz, and digitized at 10 kHz. Acquisition and analysis was performed using pCLAMP 10.2 (Molecular Devices). To calculate AMPA/NMDA ratios, evoked synaptic responses were collected at −70 mV to measure AMPAR-mediated EPSCs and at +40 mV to measure NMDAR-mediated EPSCs. Typically, 20 responses were averaged to generate an average response. The peak AMPA response was used to calculate the AMPAR component and the amplitude at 40 ms post the AMPAR peak response was used to calculate the slower NMDA component at +40 mV to calculate the AMPA/NMDA ratio.

Consider `COC(=O)[C@H]1[C@@H](OC(=O)c2ccccc2)C[C@@H]2CC[C@H]1N2C` [cocaine], for which the “mean AMPA/NMDA ratio, D1” value is, setting by setting: (TNFα−/− mice, 1 day cocaine 15 mg/kg) 4.28±0.35; (TNFα−/− mice, 5 days cocaine 15 mg/kg) 4.97±083; (WT mice, 1 day cocaine 15 mg/kg) 3.38±0.57; (WT mice, 5 days cocaine 15 mg/kg) 2.73±0.35.

In the case of monophosphoryl lipid A [MPLA], the “AMPA/NMDA ratio in D1-MSNs vs saline treated controls” value (MPLA 10 μg, 24 hours after injection, after 10 days withdrawal from cocaine) is “significantly reduced”.
